Where two headings read alike, the source gives them in different places. Starred links: 1 amine or outer side, 2 acyl side, 3 side chain; linkers in the order of their positions; H or OH if unused. Non-standard residues stand in square brackets, D forms with d. Residues, ends and D or L forms follow the SMILES beside them. Groups on a side chain read outwards from the residue. *: point of attachment. C20 diacid = O=C(O)CCCCCCCCCCCCCCCCCCC(=O)*; C18 diacid = O=C(O)CCCCCCCCCCCCCCCCC(=O)*; γGlu = O=C(O)[C@H](CCC(=O)[*:2])N[*:1]; αMeF = C[C@](N)(Cc1ccccc1)C(=O)O; AEEA = NCCOCCOCC(=O)O; Aib = CC(C)(N)C(=O)O
Legend:
[1] = target: T1, porcine pancreatic pepsin (Sus scrofa, UniProt P00791); experiment: Proteolytic resistance to FasSSGF containing porcine pancreatic pepsin; assay type: in vitro ADME; details: 0 min, FasSSGF with pepsin, 37° C.
T1 construct: purchased Sigma P7012
T1 sequence (P00791 60-385): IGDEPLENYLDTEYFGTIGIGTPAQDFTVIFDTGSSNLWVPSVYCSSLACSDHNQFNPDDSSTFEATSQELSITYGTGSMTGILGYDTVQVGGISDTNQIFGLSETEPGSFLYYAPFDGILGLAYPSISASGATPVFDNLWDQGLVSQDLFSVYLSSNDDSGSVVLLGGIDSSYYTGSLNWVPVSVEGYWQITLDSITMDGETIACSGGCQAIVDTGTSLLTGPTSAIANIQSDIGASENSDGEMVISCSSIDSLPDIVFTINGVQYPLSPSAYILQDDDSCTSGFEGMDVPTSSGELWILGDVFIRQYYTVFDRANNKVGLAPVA
Procedure: (§1) Lyophilized porcine pancreatic pepsin (Sigma: P7012) was reconstituted to 0.5 mg/mL (˜2500 units/mL) in freshly prepared FasSSGF (Biorelevant media) to give the enzyme stock solution. Peptide stock solution was prepared to a concentration of 250 μM (˜1.0 mg/mL) in FasSSGF. 200 μL ([…], ˜250 units) of pepsin stock solution was added to 200 μL of peptide solution (1.0 mg/mL, ˜100 μg of peptide, ˜25 nmoles) and the mixture was co-incubated in a temperature-regulated incubator at 37° C. for the duration of the experiment. 30 μL aliquot of the peptide-enzyme mixture was periodically withdrawn (t=0, 5, 10, 15, and 30 min) and quenched immediately by addition of 80 μL of 0.1 M ammonium bicarbonate solution in water/acetonitrile (4:1, pH 8) to arrest proteolytic activity. 30 μL aliquot was analyzed by analytical RP-HPLC. Analytical RP-HPLC method: Agilent Polaris C8-A column (4.6×100 mm, 3 micron) eluted with a linear binary gradient of 10-90°/MeCN (0.1% TFA v/v) in water (0.1% TFA v/v) over either 10 or 15 mins at 1.5 mL min-1 at 40° C. with detection by UV absorption at 210 nm. Manual integration (AUC) allowed estimation of remaining intact peptide over the time course of the experiment.

[2] = tested on: Pancreatin; experiment: Proteolytic resistance to fasted-state simulated intestinal fluid (FasSSIF/Pancreatin); assay type: in vitro ADME; details: 0 min, 37° C.
Procedure: A fresh suspension of FasSSIF/P (Fasted-State Simulated Intestinal Fluid+USP Pancreatin®) was prepared according to that described by Galia, Nicolaides, Hörter, Löbenberg, Reppas and Dressman: Pharm. Res. 15 (1998) 698-70.5, and USP XL requirements. The resulting preparation was used immediately without storage.
Peptide for evaluation (1.0 mg) was dissolved in pre-warmed FasSSIF without Pancreatin® (200 μL). To this fresh FasSSIF/Pancreatin® (100 μL) was added to initiate potential proteolysis. Following momentary vortexing of the reaction tube the mixture was incubated at 37° C. in a thermostatic water bath for the duration of the experiment. 25 μL aliquot of the co-incubated peptide-enzyme mixture was periodically withdrawn (t=0, 5, 10 15 and 30 min) and quenched immediately by addition to a solution of 10% TFA in 1:1 water/acetonitrile (75 μL) to arrest proteolytic activity. Quenched samples were centrifuged (7800 RPM, 3 mins) to pellet solids and 10 μL aliquots of the supernatant solution were analyzed using analytical RP-HPLC as follows: Analytical RP-HPLC method: Agilent Polaris C8-A column (4.6×100 mm, 3 micron) eluted with a linear binary gradient of 10-90% MeCN (0.1% TFA v/v) in water (0.1% TFA v/v) over either 10 or 15 mins at 1.5 mL min^−1 at 40° C. with detection by UV absorption at 210 nm. […]

[3] = dog, in vivo, iv, 10 nmol/kg
Excerpt: (§2) Selected test peptides (n=8) were profiled for pharmacokinetic (PK) properties in the mouse after single intravenous (i.v.) or subcutaneous (s.c.) dose. A subset (n=4) meeting the acceptance criteria was subsequently profiled in the dog (single i.v. dose) and non-human primate (single i.v. and s.c. dose). […] Low-binding plasticware containers were used during preparation and sample handling to avoid non-specific binding.
Blood of each sample was transferred into plastic micro centrifuge tubes containing EDTA-K2, inverted several times for proper mixing of contents and then placed on wet ice.
(§3) Samples analysis: Samples were analyzed by LC-MS/MS. Calibration standards were injected at the beginning and end of each batch and the determined concentration for each prepared standard was used to construct a calibration curve. Plasma and dose aliquot sample concentrations were determined from the plasma calibration curve.
Data analysis: Plasma concentration data was analyzed by non-compartmental analysis (NCA) using Phoenix Winnonlin v. 8.3.3.33. Linear trapezoidal rule was used for increasing values and log trapezoidal rule was used for decreasing values, applying uniform weighting for lambda_z calculations. Subcutaneous bioavailability was calculated as the ratio AUC(s.c.)0-inf/AUC(i.v.)0-inf. Reported values (Table 18) represent the mean of the individual estimates.

[4] = cynomolgus monkey, in vivo, 20 nmol/kg
Excerpt: as §2
Non-human primate: PK was studied in non-naïve male cynomolgus monkeys. After dosing, PK samples were collected from the femoral vein. Blood of each sample was transferred into plastic micro centrifuge tubes containing EDTA-K2, inverted several times for proper mixing of contents and then placed on wet ice.
as §3
Data analysis: Plasma concentration data was analyzed by non-compartmental analysis (NCA) using Phoenix Winnonlin v. 8.3.3.33. […] Subcutaneous bioavailability was calculated as the ratio AUC(s.c.)0-inf/AUC(i.v.)0-inf. […]

[5] = target: T2, neprilysin (Homo sapiens, UniProt P08473); experiment: Proteolytic resistance to neprilysin; assay type: in vitro ADME; details: pH 8.3
T2 construct: purchased R&D Systems 1182-ZNC-010
T2 sequence (P08473 whole entry): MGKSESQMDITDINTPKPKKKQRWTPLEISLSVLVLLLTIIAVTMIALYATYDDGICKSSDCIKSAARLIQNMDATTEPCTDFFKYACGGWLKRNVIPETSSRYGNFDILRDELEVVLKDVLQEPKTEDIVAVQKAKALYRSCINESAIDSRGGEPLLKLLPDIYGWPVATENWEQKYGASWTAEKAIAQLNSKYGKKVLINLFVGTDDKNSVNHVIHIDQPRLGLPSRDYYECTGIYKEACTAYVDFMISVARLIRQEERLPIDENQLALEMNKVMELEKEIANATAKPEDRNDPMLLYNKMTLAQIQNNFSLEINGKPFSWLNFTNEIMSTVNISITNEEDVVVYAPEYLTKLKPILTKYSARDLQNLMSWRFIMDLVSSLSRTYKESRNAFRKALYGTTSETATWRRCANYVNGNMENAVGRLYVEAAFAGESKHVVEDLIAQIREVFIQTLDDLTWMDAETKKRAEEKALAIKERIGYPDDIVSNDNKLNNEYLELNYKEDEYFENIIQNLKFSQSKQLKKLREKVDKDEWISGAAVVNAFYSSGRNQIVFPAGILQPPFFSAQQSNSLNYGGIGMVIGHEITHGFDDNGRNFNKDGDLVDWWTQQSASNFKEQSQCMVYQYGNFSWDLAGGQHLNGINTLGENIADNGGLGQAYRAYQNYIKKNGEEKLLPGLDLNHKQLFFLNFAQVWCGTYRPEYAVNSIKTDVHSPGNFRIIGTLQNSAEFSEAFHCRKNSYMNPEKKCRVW
Procedure: 10.0 μg (˜10 units) recombinant Neprilysin (R&D Systems: 1182-ZNC-010) was reconstituted to 100 μL (100 μg/mL, ˜100 units/mL) in assay buffer (50 mM Tris, 50 mM NaCl, 50 mM NaHCO3, adjusted to pH 8.3) to give the enzyme stock solution. Peptide stock solutions were prepared to a concentration of ˜250 μM (˜1.0 mg/mL of 4 kDa peptide) in assay buffer. 100 μL (10 μg, ˜10 units) of neprilysin stock solution was added to 100 μL of peptide stock solution (1.0 mg/mL, ˜100 μg of peptide) and the mixture was co-incubated in a temperature regulated incubator at 37° C. for the duration of the experiment. 25 μL aliquots (˜12.5 μg initial peptide) of the peptide-enzyme mixture were periodically withdrawn (t=0, 30 mins, 1 h, 2 h, 4 h and 24 h) and quenched immediately by addition to an equal volume ([…]) of 10% TFA (v/v) in 1:1 water/acetonitrile to arrest proteolytic activity. The quenched aliquot centrifuged at 7800 rpm, and 30 μL of the supernatant was analyzed by analytical RP-HPLC as follows: Analytical RP-HPLC method: Agilent Polaris C8-A column (4.6×100 mm, 3 micron) eluted with a linear binary gradient of 10-90% MeCN (0.1% TFA v/v) in water (0.1% TFA v/v) over either 10 or 15 mins at 1.5 mL min^−1 at 40° C. with detection by UV absorption at 210 nm. Manual integration (AUC) allowed estimation of remaining intact peptide over the time course of the experiment.

[6] = tested on: wildtype (WT) mice; experiment: Glucose change in wildtype mice; assay type: in vivo, mouse; details: s.c., 1.5 nmol/kg, somatostatin pretreatment 30 min prior to cpd
In short: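 Chow-fed wildtype mice, 8-14 weeks old, n=4-8/group, fasted 2 h before peptide injection, in some studies after octreotide 10 mg/kg 30 min before dosing. Blood glucose by glucometer at −30, 0, 30, 60, 120, 180, 240 and 360 min; mice reused up to 3 times with ≥1-week washout.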

[7] = tested on: T3, porcine pancreatic pepsin; experiment: Proteolytic resistance to FasSSGF containing porcine pancreatic pepsin; assay type: in vitro ADME; details: pig, simulated gastric fluid
T3 construct: purchased Sigma P7012
Procedure: as §1

[8] = tested on: Male C57Bl/6 mice; experiment: Mouse acute food intake study; assay type: in vivo; details: s.c., dose 10 nmol/kg, food intake at 24 h vs vehicle
Procedure: Male C57Bl/6 mice obtained from Jackson Laboratories or Charles River at 8-9 weeks of age and were housed one per cage in BioDaq (Research Diets) cages. Mice were placed on Alpha Dri bedding, standard chow diet (Envigo, 2018) and given water pouches. Mice were allowed to acclimate for 1-2 weeks. Body weight was measured to ensure appropriate acclimation. After acclimation, mice were sham dosed a minimum of 2 times prior to initiation of food intake study. On study day, mice were placed in clean cage bottoms, weighed, and fasted for 6-8 hours. Mice were sorted into groups based on average 24-hour food intake data and body weight. 1-2 hours prior to lights out, mice were dosed subcutaneously with one vehicle or test peptide dissolved in an appropriate vehicle at 5 mL/kg. Mice were left undisturbed and allowed access to food and water for 48 hours. Automated food intake was monitored in the BioDaq system was monitored during this time. Discrete food intake data was exported into MS Excel from which cumulative food intake data was generated and analyzed.

half-life [3]	bioavailability [4]	half-life ([4]; iv)	% intact peptide over time, Neprilysin [5]	remaining at 10 min, 125 µM [7]	SMILES	% intact peptide over time (min), FasSSGF [1]	% intact peptide over time (min), FasSSIF [2]	WT % glucose change 120 min [6]	24 hr % Vehicle Food Intake [8]
–	–	–	–	–	CC[C@H](C)[C@H](NC(=O)[C@H](Cc1ccccc1)NC(=O)[C@H](CCC(=O)O)NC(=O)[C@H](CCCCNC(=O)COCCOCCNC(=O)COCCOCCNC(=O)CC[C@H](NC(=O)CCCCCCCCCCCCCCCCC(=O)O)C(=O)O)NC(=O)[C@H](C)NC(=O)[C@H](C)NC(=O)[C@H](CCC(N)=O)NC(=O)CNC(=O)[C@H](CCC(=O)O)NC(=O)[C@H](CC(C)C)NC(=O)[C@H](Cc1ccc(O)cc1)NC(=O)[C@H](CO)NC(=O)[C@H](CO)NC(=O)[C@@H](NC(=O)[C@H](CC(=O)O)NC(=O)[C@H](CO)NC(=O)[C@@H](NC(=O)[C@H](Cc1ccccc1)NC(=O)[C@@H](NC(=O)CNC(=O)[C@H](CCC(=O)O)NC(=O)C(C)(C)NC(=O)[C@@H](N)Cc1cnc[nH]1)[C@@H](C)O)[C@@H](C)O)C(C)C)C(=O)N[C@@H](C)C(=O)N[C@@H](Cc1c[nH]c2ccccc12)C(=O)N[C@@H](CC(C)C)C(=O)N[C@H](C(=O)N[C@@H](CCCNC(=N)N)C(=O)NCC(=O)N[C@@H](CCCNC(=N)N)C(=O)NCC(=O)O)C(C)C [semaglutide, reference compound]	100%	100%	–	–
86 h	75%	130 h	100%	–	CC[C@H](C)[C@H](NC(=O)C(C)(C)NC(=O)[C@H](CCC(N)=O)NC(=O)[C@@H](NC(=O)[C@](C)(Cc1ccccc1)NC(=O)[C@H](CC(=O)O)NC(=O)[C@H](CCCCNC(=O)COCCOCCNC(=O)COCCOCCNC(=O)CC[C@H](NC(=O)CC[C@H](NC(=O)CCCCCCCCCCCCCCCCCCC(=O)O)C(=O)O)C(=O)O)NC(=O)[C@H](C)NC(=O)[C@H](C)NC(=O)[C@H](CCCNC(=N)N)NC(=O)[C@H](CO)NC(=O)[C@H](CC(=O)O)NC(=O)[C@H](CC(C)C)NC(=O)[C@](C)(Cc1ccccc1)NC(=O)[C@H](CCCCN)NC(=O)[C@H](CO)NC(=O)[C@@H](NC(=O)[C@H](CC(=O)O)NC(=O)[C@H](CO)NC(=O)[C@@H](NC(=O)[C@](C)(Cc1ccccc1)NC(=O)[C@H](CO)NC(=O)CNC(=O)[C@H](Cc1c[nH]cn1)NC(=O)C(C)(C)NC(=O)[C@@H](N)Cc1c[nH]cn1)[C@@H](C)O)C(C)C)C(C)C)C(=O)N[C@@H](C)C(=O)N[C@@H](CC(N)=O)C(=O)N[C@H](C(N)=O)[C@@H](C)O [Peptide 229, H-Aib-H-G-S-αMePhe-T-S-D-V-S-K-αMePhe-L-D-S-R-A-A-K(ε-(O2Oc)-(O2Oc)-γE-γE-C20diacid)20-D-αMePhe-V-Q-Aib-I-A-N-T-amide] (H-H[Aib]HGS[αMeF]TSDVSK[αMeF]LDSRAAK([AEEA-AEEA-γGlu-γGlu-C20 diacid])D[αMeF]VQ[Aib]IANT-NH2)	–	–	–	–
–	–	–	100%	60%	CC[C@H](C)[C@H](NC(=O)[C@H](Cc1c[nH]c2ccccc12)NC(=O)[C@H](CCC(=O)O)NC(=O)[C@@H](NC(=O)[C@](C)(Cc1ccccc1)NC(=O)[C@H](CC(=O)O)NC(=O)[C@H](CCC(N)=O)NC(=O)[C@H](C)NC(=O)[C@H](C)NC(=O)[C@H](CCCCNC(=O)CC[C@H](NC(=O)CCCCCCCCCCCCCCCCC(=O)O)C(=O)O)NC(=O)[C@H](CO)NC(=O)[C@H](CC(=O)O)NC(=O)[C@H](CC(C)C)NC(=O)[C@](C)(Cc1ccccc1)NC(=O)[C@H](CCCCN)NC(=O)[C@H](CO)NC(=O)[C@@H](NC(=O)[C@H](CC(=O)O)NC(=O)[C@H](CO)NC(=O)[C@@H](NC(=O)[C@](C)(Cc1ccccc1)NC(=O)[C@H](CO)NC(=O)CNC(=O)[C@H](Cc1c[nH]cn1)NC(=O)C(C)(C)NC(=O)[C@@H](N)Cc1c[nH]cn1)[C@@H](C)O)C(C)C)C(C)C)C(=O)N[C@@H](C)C(=O)N[C@@H](CC(N)=O)C(=O)N[C@H](C(N)=O)[C@@H](C)O [Peptide 7] (H-H[Aib]HGS[αMeF]TSDVSK[αMeF]LDSK([γGlu-C18 diacid])AAQD[αMeF]VEWIANT-NH2; N-terminus assumed)	–	–	5.4%	55.0%

— patent publication US12630600B2 (MEDIMMUNE LIMITED, priority 2022, dated 2026)
